From ChEMBL document CHEMBL3044599, “Structure-activity relationship of citrus polymethoxylated flavones and their inhibitory effects on Aspergillus niger” (J Agric Food Chem, 2012)
The source made the active and inactive calls. The rule behind the calls is not given here.

Tested on: Aspergillus niger
Assay: Antifungal activity against Aspergillus niger CICC 2273 assessed as inhibition of mycelial growth by microbroth dilution method
Assay type: functional, organism-based

Row | Compound | inhibition
1 | COc1ccc(-c2oc3c(OC)c(OC)c(OC)c(OC)c3c(=O)c2O)cc1OC | inactive
2 | CC(=O)C[C@H]1O[C@@H](Oc2ccc3c(=O)cc(-c4ccccc4)oc3c2)[C@H](O)[C@@H](O)[C@@H]1O | inactive
3 | COc1ccc(-c2oc3cc(OC)c(OC)c(OC)c3c(=O)c2OC)cc1OC | Active
4 | COc1ccc(-c2cc(=O)c3c(OC)c(OC)c(OC)cc3o2)cc1 | Active
5 | COc1ccc(-c2cc(=O)c3c(O)c(OC)c(OC)c(OC)c3o2)cc1OC | Active
6 | COc1ccc(-c2cc(=O)c3c(OC)c(OC)c(OC)c(OC)c3o2)cc1OC | Active
